From patent US7842700B2, “Crystals of isopropyl ester of N-(2,6-dichlorobenzoyl)-4-[6-(methylamino)methyl-1-methyl-2,4-dioxo-1,4-dihydroquinazoline-3(2H)-yl]-L-phenylalanine hydrochloride, production method thereof and use thereof” (Ajinomoto Co., Inc., priority 2005, dated 2010)

What was measured:
[1] = Preservation stability test; type: physicochemical; conditions: 4 weeks; 40° C./75% relative humidity opened, 60° C./opened, vs room temperature/closed control
Procedure: Preservation Stability Test
Crystal form Cl5, crystal form Br5 and crystal form A were preserved in the following condition, and then the amount of impurities in each sample was compared. However, the increase in the impurities by heating was not observed.
• 40° C./75% relative humidity—opened • 60° C./opened • Room temperature/closed (control)

[2] = Powder X-ray diffraction measurement under the control of relative humidity; type: physicochemical; conditions: dry: 50° C. under reduced pressure; wet: 85% relative humidity
Procedure: Powder X-Ray Diffraction Measurement Under the Control of Relative Humidity
The powder X-ray diffraction of each of crystal form Cl5 and crystal form Mal2 was measured in the following condition, and the diffraction patterns between dry one and wet one were compared. However, there was no difference thereof in each crystal.
Drying condition (dry): measurement of a sample with drying it at 50° C. under reduced pressure
Humid condition (wet): measurement of a sample under 85% relative humidity
Powder diffractometer: RINT2100S by RIGAKU (and a temperature and humidity attachment for said diffractometer) Humidity generator: SRH-1R Shinei Co., Inc.

[3] = tested on: lymphocytes in the peripheral blood; assay: Activity to elevate the number of lymphocytes in the peripheral blood in a rat; type: in vivo; conditions: 30 mg/kg oral, male Wistar rats, 12 hours after administration, control = 100%
Procedure: Activity to Elevate the Number of Lymphocytes in the Peripheral Blood in a Rat
Therefore, the activity of the compound of the formula (I) to elevate the number of lymphocytes in the rat was examined.
The dosing solution was prepared by dissolving the compound of the formula (I) in dimethylsulfoxide, adding a mixed solution of polyethylene glycol 400: propylene glycol=1:1 thereto and turning it upside and down repeatedly. The final concentration of DMSO was adjusted to 2.5%.
The dosing solution of a test substance (30 mg/kg) was orally administered to male Wistar rats (6 to 8 weeks age) in the amount of 4 mL/kg. After the settled time points after the administration, the blood was drawn from the abdominal large vein under anesthesia and mixed in an EDTA-2K coated container for blood collection. Then, the number of lymphocytes in the peripheral blood was determined by an automated comprehensive hematology analyzer (SF-3000, Sysmex). The test was conducted in n=5, and the ratio (%) of the number of lymphocytes in the peripheral blood in a test substance-administered group to that in a vehicle-treated group (a control group) was calculated while the average value of the number of lymphocytes in the peripheral blood in a control group was determined to be 100%.

| SMILES | increase in the impurities by heating [1] | difference of powder X-ray diffraction patterns between dry and wet [2] | ratio (%) of the number of lymphocytes in the peripheral blood to that in a vehicle-treated group [3] |
| --- | --- | --- | --- |
| CNCc1ccc2c(c1)c(=O)n(-c1ccc(C[C@H](NC(=O)c3c(Cl)cccc3Cl)C(=O)OC(C)C)cc1)c(=O)n2C [crystal form Cl5] | not observed | no difference | – |
| CNCc1ccc2c(c1)c(=O)n(-c1ccc(C[C@H](NC(=O)c3c(Cl)cccc3Cl)C(=O)OC(C)C)cc1)c(=O)n2C [compound of the formula (I), isopropyl ester of N-(2,6-dichlorobenzoyl)-4-[6-(methylamino)methyl-1-methyl-2,4-dioxo-1,4-dihydroquinazoline-3(2H)-yl]-L-phenylalanine] | – | – | ≥ 150% |
